Where no end group is shown, it is not given here.
Test system: ddy male mice
Conditions: mouse, in vivo, iv
Protocol: By using the peptide prepared in Example 1, its acute toxicity was tested on ddy male mice (with the body weight ranging from 40 to 45 g). The present peptide was dissolved in a physiological saline (pH 6.0) and the solution thereof was administered intravenously into a vein in the tail of each mouse, and observation was made for 14 days. The dosage amount was set respectively at 1, 10, and 100 μg/kg.

KLTTIFPLNWKYRKAL [Example 1, Lys Leu Thr Thr Ile Phe Pro Leu Asn Trp Lys Tyr Arg Lys Ala Leu]
Deceased mice (in words): not deceased mouse observed
Number of Deceased Mice: 0/5

From patent US6930091B2, “Peptides and remedy for bone diseases containing the same as active ingredient” (priority 1995, dated 2005)
